Laboratory results taken from patent US20050203119A1, “Dihydropyridine compounds for treating or preventing metabolic disorders” (priority 2003, published 2005).

System: male db/db mice (BKS.Cg-m+/+Lepr db/J)
Experiment: Oral glucose tolerance test (OGTT) in db/db mice (Example 122, FIG. 4)
Assay type: in vivo, mouse
Conditions: orally dosed
Protocol: To determine the effect of a test compound on blood glucose levels in diabetic mice, intraperitoneal and/or oral glucose tolerance tests (IPGTT and OGTT, respectively) were conducted. Six to eight week old, male db/db mice (BKS.Cg-m+/+Lepr^db/J; stock number 000642), homozygous for a mutation in the gene encoding the leptin receptor, were purchased from The Jackson Laboratory (Bar Harbor, Me. USA). Animals were singly housed in conventional caging on a 12 hr/12 hr light/dark cycle, acclimated for at least five days prior to use and fed normal laboratory chow ad libitum between experiments. Studies were conducted with animals between seven and fourteen weeks of age. […]
To perform an IPGTT or OGTT, db/db mice were fasted overnight beginning on day 0 at −17.5 to −18.5 hrs relative to the glucose dose on day 1 (all time points below are stated relative to the time of an intraperitoneal or oral glucose dose on day 1). At −4.5 hrs, animals were weighed, blood was collected by tail vein lancing and fasted blood glucose levels determined using a hand-held glucometer (MediSense Precision Xtra or LifeScan OneTouch Ultra). […] Blood glucose levels were determined as above at −45 min and +45 min, and also +90 min and/or +150 min (see FIG. 3 and the Table in this section). Alternatively, blood glucose levels were determined at −30 min, +30 min, +60 min and +120 min (see FIGS. 4 and 5). […]

For `CCOC(=O)C1=C(COCCN)NC2=C(C(=O)CC(C)(C)C2)C1c1cccnc1` (stereo not shown) [Compound 39, 2-(2-Amino-ethoxymethyl)-7,7-dimethyl-5-oxo-4-pyridin-3-yl-1,4,5,6,7,8-hexahydro-quinoline-3-carboxylic acid ethyl ester], which “glucose intolerance relative to vehicle-treated animals (FIG. 4)” value is on record?
The value was “decreased”.
